Data reported in ChEMBL document CHEMBL2440076, “New triarylpyrazoles as broad-spectrum anticancer agents: design, synthesis, and biological evaluation” (Eur J Med Chem, 2013).

How the values were obtained:
Type in all cases: functional
M14 = experiment: Growth inhibition of human M14 cells assessed as cell growth at 10^-5 M after 48 hrs by sulforhodamine B assay; conditions: M14, 48 h, read-out: Activity
PC-3 [1] = experiment: Growth inhibition of human PC3 cells assessed as cell growth at 10^-7 M after 48 hrs by sulforhodamine B assay; conditions: PC-3, 48 h, read-out: Activity
SK-MEL-28 [2] = experiment: Growth inhibition of human SK-MEL-28 cells assessed as cell growth at 10^-7 M after 48 hrs by sulforhodamine B assay; conditions: SK-MEL-28, 48 h, read-out: Activity
DU-145 = experiment: Growth inhibition of human DU145 cells assessed as cell growth at 10^-4 M after 48 hrs by sulforhodamine B assay; conditions: DU-145, 48 h, read-out: Activity
UO-31 [3] = experiment: Growth inhibition of human UO31 cells assessed as cell growth at 10^-4 M after 48 hrs by sulforhodamine B assay; conditions: UO-31, 48 h, read-out: Activity
A498 = experiment: Growth inhibition of human A498 cells assessed as cell growth at 10^-6 M after 48 hrs by sulforhodamine B assay; conditions: A498, 48 h, read-out: Activity
SNB-19 [4] = experiment: Growth inhibition of human SNB19 cells assessed as cell growth at 10^-6 M after 48 hrs by sulforhodamine B assay; conditions: SNB-19, 48 h, read-out: Activity
[5] = Growth inhibition of human Hs 578T cells assessed as cell growth at 10^-8 M after 48 hrs by sulforhodamine B assay; conditions: read-out: Activity
PC-3 [6] = experiment: Growth inhibition of human PC3 cells assessed as cell growth at 10^-5 M after 48 hrs by sulforhodamine B assay; conditions: PC-3, 48 h, read-out: Activity
UACC-62 [7] = experiment: Growth inhibition of human UACC62 cells assessed as cell growth at 10^-8 M after 48 hrs by sulforhodamine B assay; conditions: UACC-62, 48 h, read-out: Activity
[8] = Growth inhibition of human HCC2998 cells assessed as cell growth at 10^-6 M after 48 hrs by sulforhodamine B assay; conditions: HCC 2998, 48 h, read-out: Activity
SK-MEL-28 [9] = experiment: Growth inhibition of human SK-MEL-28 cells assessed as cell growth at 10^-4 M after 48 hrs by sulforhodamine B assay; conditions: SK-MEL-28, 48 h, read-out: Activity
SR [10] = experiment: Growth inhibition of human SR cells assessed as cell growth at 10^-7 M after 48 hrs by sulforhodamine B assay; conditions: read-out: Activity
LOX IMVI = experiment: Growth inhibition of human LOXIMVI cells assessed as cell growth at 10^-5 M after 48 hrs by sulforhodamine B assay; conditions: read-out: Activity
COLO 205 = experiment: Growth inhibition of human COLO205 cells assessed as cell growth at 10^-7 M after 48 hrs by sulforhodamine B assay; conditions: COLO 205, 48 h, read-out: Activity
HOP-92 = experiment: Growth inhibition of human HOP92 cells assessed as cell growth at 10^-7 M after 48 hrs by sulforhodamine B assay; conditions: HOP-92, 48 h, read-out: Activity
ACHN [11] = experiment: Growth inhibition of human ACHN cells assessed as cell growth at 10^-7 M after 48 hrs by sulforhodamine B assay; conditions: read-out: Activity
MDA-MB-435 = experiment: Growth inhibition of human MDA-MB-435 cells assessed as cell growth at 10^-4 M after 48 hrs by sulforhodamine B assay; conditions: MDA-MB-435, 48 h, read-out: Activity
[12] = Growth inhibition of human HCC2998 cells assessed as cell growth at 10^-4 M after 48 hrs by sulforhodamine B assay; conditions: HCC 2998, 48 h, read-out: Activity
[13] = Growth inhibition of human NCI-ADR-RES cells assessed as cell growth at 10^-5 M after 48 hrs by sulforhodamine B assay; conditions: read-out: Activity
SN12C = experiment: Growth inhibition of human SN12C cells assessed as cell growth at 10^-4 M after 48 hrs by sulforhodamine B assay; conditions: read-out: Activity
CAKI-1 [14] = experiment: Growth inhibition of human CAKI-1 cells assessed as cell growth at 10^-7 M after 48 hrs by sulforhodamine B assay; conditions: CAKI-1, 48 h, read-out: Activity
MDA-MB-468 = experiment: Growth inhibition of human MDA-MB-468 cells assessed as cell growth at 10^-7 M after 48 hrs by sulforhodamine B assay; conditions: MDA-MB-468, 48 h, read-out: Activity
OVCAR-8 = experiment: Growth inhibition of human OVCAR8 cells assessed as cell growth at 10^-5 M after 48 hrs by sulforhodamine B assay; conditions: OVCAR-8, 48 h, read-out: Activity
SNB-75 = experiment: Growth inhibition of human SNB75 cells assessed as cell growth at 10^-7 M after 48 hrs by sulforhodamine B assay; conditions: SNB-75, 48 h, read-out: Activity
MCF7 = experiment: Growth inhibition of human MCF7 cells assessed as cell growth at 10^-8 M after 48 hrs by sulforhodamine B assay; conditions: MCF7, 48 h, read-out: Activity
SK-OV-3 = experiment: Growth inhibition of human SKOV3 cells assessed as cell growth at 10^-6 M after 48 hrs by sulforhodamine B assay; conditions: SK-OV-3, 48 h, read-out: Activity
CAKI-1 [15] = experiment: Growth inhibition of human CAKI-1 cells assessed as cell growth at 10^-4 M after 48 hrs by sulforhodamine B assay; conditions: CAKI-1, 48 h, read-out: Activity
ACHN [16] = experiment: Growth inhibition of human ACHN cells assessed as cell growth at 10^-8 M after 48 hrs by sulforhodamine B assay; conditions: read-out: Activity
SR [17] = experiment: Growth inhibition of human SR cells assessed as cell growth at 10^-4 M after 48 hrs by sulforhodamine B assay; conditions: read-out: Activity
TK-10 = experiment: Growth inhibition of human TK10 cells assessed as cell growth at 10^-7 M after 48 hrs by sulforhodamine B assay; conditions: TK-10, 48 h, read-out: Activity
UACC-62 [18] = experiment: Growth inhibition of human UACC62 cells assessed as cell growth at 10^-7 M after 48 hrs by sulforhodamine B assay; conditions: UACC-62, 48 h, read-out: Activity
IGROV-1 = experiment: Growth inhibition of human IGROV1 cells assessed as cell growth at 10^-4 M after 48 hrs by sulforhodamine B assay; conditions: IGROV-1, 48 h, read-out: Activity
MOLT-4 = experiment: Growth inhibition of human MOLT4 cells assessed as cell growth at 10^-8 M after 48 hrs by sulforhodamine B assay; conditions: MOLT-4, 48 h, read-out: Activity
HOP-62 = experiment: Growth inhibition of human HOP62 cells assessed as cell growth at 10^-7 M after 48 hrs by sulforhodamine B assay; conditions: HOP-62, 48 h, read-out: Activity
T47D = experiment: Growth inhibition of human T47D cells assessed as cell growth at 10^-4 M after 48 hrs by sulforhodamine B assay; conditions: read-out: Activity
UO-31 [19] = experiment: Growth inhibition of human UO31 cells assessed as cell growth at 10^-8 M after 48 hrs by sulforhodamine B assay; conditions: UO-31, 48 h, read-out: Activity
SNB-19 [20] = experiment: Growth inhibition of human SNB19 cells assessed as cell growth at 10^-4 M after 48 hrs by sulforhodamine B assay; conditions: SNB-19, 48 h, read-out: Activity
PC-3 [21] = experiment: Growth inhibition of human PC3 cells assessed as cell growth at 10^-6 M after 48 hrs by sulforhodamine B assay; conditions: PC-3, 48 h, read-out: Activity

| Structure (SMILES) | growth at 10 µM (M14) | growth at 0.1 µM (PC-3 [1]) | growth at 0.1 µM (SK-MEL-28 [2]) | growth at 100 µM (DU-145) | growth at 100 µM (UO-31 [3]) | growth at 1 µM (A498) | growth at 1 µM (SNB-19 [4]) | growth at 0.01 µM [5] | growth at 10 µM (PC-3 [6]) | growth at 0.01 µM (UACC-62 [7]) | growth at 1 µM [8] | growth at 100 µM (SK-MEL-28 [9]) | growth at 0.1 µM (SR [10]) | growth at 10 µM (LOX IMVI) | growth at 0.1 µM (COLO 205) | growth at 0.1 µM (HOP-92) | growth at 0.1 µM (ACHN [11]) | growth at 100 µM (MDA-MB-435) | growth at 100 µM [12] | growth at 10 µM [13] | further results |
| --- | --- | --- | --- | --- | --- | --- | --- | --- | --- | --- | --- | --- | --- | --- | --- | --- | --- | --- | --- | --- | --- |
| COc1cc(-c2nn(-c3cccc(NC(=O)c4ccccc4)c3)cc2-c2ccncc2)ccc1Cl | 5% | 86% | 94% | -5% | 24% | 19% | 47% | 103% | 13% | 98% | 75% | 26% | 79% | 11% | 95% | 86% | 95% | -67% | -13% | 5% | growth at 100 µM (SN12C): 36%; growth at 0.1 µM (CAKI-1 [14]): 99%; growth at 0.1 µM (MDA-MB-468): 89%; growth at 10 µM (OVCAR-8): 58%; growth at 0.1 µM (SNB-75): 86%; growth at 0.01 µM (MCF7): 92%; growth at 1 µM (SK-OV-3): 51%; growth at 100 µM (CAKI-1 [15]): 7%; growth at 0.01 µM (ACHN [16]): 101%; growth at 100 µM (SR [17]): 12%; growth at 0.1 µM (TK-10): 97%; growth at 0.1 µM (UACC-62 [18]): 96%; growth at 100 µM (IGROV-1): 17%; growth at 0.01 µM (MOLT-4): 102%; growth at 0.1 µM (HOP-62): 98%; growth at 100 µM (T47D): 30%; growth at 0.01 µM (UO-31 [19]): 92%; growth at 100 µM (SNB-19 [20]): 13%; growth at 1 µM (PC-3 [21]): 29% |
| COc1cc(-c2nn(-c3cccc(NC(=O)c4ccc(N5CCOCC5)c(C(F)(F)F)c4)c3)cc2-c2ccncc2)ccc1Cl | 8% | 73% | 68% | 2% | -13% | 1% | 38% | 96% | 1% | 95% | 52% | 13% | 19% | -8% | 101% | 56% | 83% | -34% | -46% | 2% | growth at 100 µM (SN12C): 11%; growth at 0.1 µM (CAKI-1 [14]): 87%; growth at 0.1 µM (MDA-MB-468): 71%; growth at 10 µM (OVCAR-8): 3%; growth at 0.1 µM (SNB-75): 75%; growth at 0.01 µM (MCF7): 87%; growth at 1 µM (SK-OV-3): 24%; growth at 100 µM (CAKI-1 [15]): -4%; growth at 0.01 µM (ACHN [16]): 102%; growth at 100 µM (SR [17]): 6%; growth at 0.1 µM (TK-10): 106%; growth at 0.1 µM (UACC-62 [18]): 56%; growth at 100 µM (IGROV-1): -15%; growth at 0.01 µM (MOLT-4): 109%; growth at 0.1 µM (HOP-62): 90%; growth at 100 µM (T47D): 13%; growth at 0.01 µM (UO-31 [19]): 91%; growth at 100 µM (SNB-19 [20]): 15%; growth at 1 µM (PC-3 [21]): 15% |
